Data taken from patent US11697648B2, “Fused pyrimidine pyridinone compounds as JAK inhibitors” (THERAVANCE BIOPHARMA R&D IP, LLC, priority 2019, dated 2023).

What was measured:
Tyk2 = Tyk2 (Homo sapiens (Human), UniProt P29597); assay: Biochemical Tyk2 kinase assay (LanthaScreen)
How it was run: (§1)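 GST-JAK + GFP-STAT1 peptide, HEPES pH 7.5/MgCl2/EGTA/Brij-35 buffer; cpd preincubation 1 h RT; ATP start, 1 h RT; stop with 10 mM EDTA + 2 nM Tb-anti-pSTAT1; TR-FRET 520/495. 4-parameter IC50 → pKi (Cheng-Prusoff).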

JAK1 = JAK1 (Homo sapiens (Human), UniProt P23458); assay: Biochemical JAK1 kinase assay (LanthaScreen)
Sequence of JAK1 (P23458 whole entry): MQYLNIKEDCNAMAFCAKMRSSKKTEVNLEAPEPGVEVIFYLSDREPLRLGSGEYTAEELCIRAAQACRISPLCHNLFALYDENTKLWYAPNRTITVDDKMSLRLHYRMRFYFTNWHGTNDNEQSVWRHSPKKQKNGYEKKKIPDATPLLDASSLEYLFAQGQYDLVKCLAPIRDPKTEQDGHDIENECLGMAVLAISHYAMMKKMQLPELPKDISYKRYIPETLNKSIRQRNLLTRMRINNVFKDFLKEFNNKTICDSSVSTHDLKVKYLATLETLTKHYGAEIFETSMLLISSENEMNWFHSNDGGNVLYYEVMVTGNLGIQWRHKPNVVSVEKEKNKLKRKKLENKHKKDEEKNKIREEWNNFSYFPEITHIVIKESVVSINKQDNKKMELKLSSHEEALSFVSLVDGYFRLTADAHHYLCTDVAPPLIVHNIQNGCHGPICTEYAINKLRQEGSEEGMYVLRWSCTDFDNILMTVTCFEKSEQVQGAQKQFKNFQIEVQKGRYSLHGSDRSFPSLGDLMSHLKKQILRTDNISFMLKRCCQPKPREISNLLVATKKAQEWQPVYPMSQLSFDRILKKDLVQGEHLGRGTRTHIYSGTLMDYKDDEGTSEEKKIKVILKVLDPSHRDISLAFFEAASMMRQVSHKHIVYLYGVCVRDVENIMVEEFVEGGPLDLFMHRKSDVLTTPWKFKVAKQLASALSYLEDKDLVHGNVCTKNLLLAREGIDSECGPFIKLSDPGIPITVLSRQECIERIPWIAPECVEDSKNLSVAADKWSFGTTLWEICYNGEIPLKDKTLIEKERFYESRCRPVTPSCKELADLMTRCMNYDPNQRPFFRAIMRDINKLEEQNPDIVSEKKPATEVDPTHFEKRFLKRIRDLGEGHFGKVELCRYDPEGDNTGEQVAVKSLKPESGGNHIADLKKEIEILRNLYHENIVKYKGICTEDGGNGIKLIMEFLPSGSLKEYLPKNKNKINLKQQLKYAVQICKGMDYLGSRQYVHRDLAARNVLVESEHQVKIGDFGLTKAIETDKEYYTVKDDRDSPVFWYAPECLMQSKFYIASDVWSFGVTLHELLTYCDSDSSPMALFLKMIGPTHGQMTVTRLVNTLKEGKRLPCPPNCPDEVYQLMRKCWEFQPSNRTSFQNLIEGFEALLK
How it was run: as §1

JAK2 = JAK2 (Homo sapiens (Human), UniProt O60674); assay: Biochemical JAK2 kinase assay (LanthaScreen)
Sequence of JAK2 (O60674 whole entry): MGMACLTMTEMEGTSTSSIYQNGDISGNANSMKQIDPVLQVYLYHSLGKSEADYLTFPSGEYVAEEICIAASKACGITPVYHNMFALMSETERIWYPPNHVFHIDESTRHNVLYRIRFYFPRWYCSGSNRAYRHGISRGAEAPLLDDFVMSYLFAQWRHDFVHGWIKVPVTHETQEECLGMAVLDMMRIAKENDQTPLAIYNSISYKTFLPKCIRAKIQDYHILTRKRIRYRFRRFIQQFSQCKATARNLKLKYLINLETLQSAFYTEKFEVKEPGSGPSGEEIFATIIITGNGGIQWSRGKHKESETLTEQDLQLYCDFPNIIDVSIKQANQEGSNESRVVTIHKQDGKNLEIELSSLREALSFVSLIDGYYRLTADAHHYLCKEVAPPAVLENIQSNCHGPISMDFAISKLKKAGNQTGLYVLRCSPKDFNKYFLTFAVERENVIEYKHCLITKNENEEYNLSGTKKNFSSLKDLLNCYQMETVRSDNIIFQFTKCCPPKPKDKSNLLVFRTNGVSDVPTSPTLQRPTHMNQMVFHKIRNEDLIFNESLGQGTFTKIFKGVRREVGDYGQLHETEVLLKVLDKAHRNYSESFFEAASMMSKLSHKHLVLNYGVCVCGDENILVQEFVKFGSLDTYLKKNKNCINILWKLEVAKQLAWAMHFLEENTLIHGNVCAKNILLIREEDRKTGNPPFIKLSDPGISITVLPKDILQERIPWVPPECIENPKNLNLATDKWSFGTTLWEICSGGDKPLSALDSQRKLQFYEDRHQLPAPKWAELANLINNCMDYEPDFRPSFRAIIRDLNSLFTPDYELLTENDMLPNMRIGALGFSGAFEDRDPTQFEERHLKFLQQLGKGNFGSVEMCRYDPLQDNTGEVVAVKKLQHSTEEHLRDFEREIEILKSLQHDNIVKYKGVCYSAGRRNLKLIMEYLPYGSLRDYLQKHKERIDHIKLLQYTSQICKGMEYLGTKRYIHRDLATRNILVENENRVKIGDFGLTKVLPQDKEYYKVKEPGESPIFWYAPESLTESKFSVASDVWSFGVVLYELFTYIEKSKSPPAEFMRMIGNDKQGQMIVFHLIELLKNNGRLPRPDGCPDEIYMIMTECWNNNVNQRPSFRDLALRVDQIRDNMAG
How it was run: as §1

Caco-2 cell monolayers = assay: Caco-2 permeation assay; format: in vitro ADME; settings: 5 μM, A-B direction, with Verapamil (25 μM)
How it was run: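 Passive A-to-B permeability with P-gp inhibited by verapamil (25 μM); compound at 5 μM, n=2. Both compartments sampled at t0 and t120 and quantified by LC-MS/MS, giving apparent permeability in cm/sec from flux, area and concentration.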

JAK3 = JAK3 (Homo sapiens (Human), UniProt P52333); assay: Biochemical JAK3 kinase assay (LanthaScreen); settings: for JAK3 (pKi)-JAK1 (pKi): selectivity JAK3 over JAK1, difference of pKi
Sequence of JAK3 (P52333 whole entry): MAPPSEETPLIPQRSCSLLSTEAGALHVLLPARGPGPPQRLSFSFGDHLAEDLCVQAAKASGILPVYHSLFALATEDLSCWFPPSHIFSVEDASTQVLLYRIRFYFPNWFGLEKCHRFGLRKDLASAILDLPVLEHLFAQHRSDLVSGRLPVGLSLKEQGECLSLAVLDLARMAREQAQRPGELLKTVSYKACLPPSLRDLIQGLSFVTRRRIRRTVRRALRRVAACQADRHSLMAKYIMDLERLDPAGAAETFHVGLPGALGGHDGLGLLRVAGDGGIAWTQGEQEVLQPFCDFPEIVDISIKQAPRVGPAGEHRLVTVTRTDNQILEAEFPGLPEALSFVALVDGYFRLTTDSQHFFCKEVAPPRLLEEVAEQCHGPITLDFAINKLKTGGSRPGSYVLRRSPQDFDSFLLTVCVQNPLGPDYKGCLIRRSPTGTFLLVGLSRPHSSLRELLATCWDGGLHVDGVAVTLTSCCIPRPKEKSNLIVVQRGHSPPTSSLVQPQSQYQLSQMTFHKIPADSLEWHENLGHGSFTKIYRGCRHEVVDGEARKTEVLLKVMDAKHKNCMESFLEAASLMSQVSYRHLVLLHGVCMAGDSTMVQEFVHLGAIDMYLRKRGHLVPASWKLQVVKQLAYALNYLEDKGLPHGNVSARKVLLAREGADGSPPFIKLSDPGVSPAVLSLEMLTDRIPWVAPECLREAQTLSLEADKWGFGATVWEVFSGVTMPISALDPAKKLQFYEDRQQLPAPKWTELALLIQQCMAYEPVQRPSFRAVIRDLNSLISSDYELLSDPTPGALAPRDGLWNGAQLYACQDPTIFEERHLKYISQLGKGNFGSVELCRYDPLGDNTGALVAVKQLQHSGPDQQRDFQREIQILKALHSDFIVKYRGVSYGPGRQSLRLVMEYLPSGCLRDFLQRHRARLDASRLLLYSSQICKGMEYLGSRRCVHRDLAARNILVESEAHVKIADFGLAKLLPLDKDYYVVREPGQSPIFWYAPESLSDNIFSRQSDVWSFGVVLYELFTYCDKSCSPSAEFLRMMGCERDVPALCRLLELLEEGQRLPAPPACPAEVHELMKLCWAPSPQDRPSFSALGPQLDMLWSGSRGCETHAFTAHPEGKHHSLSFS
How it was run: as §1

[1] = test system: IL-2 stimulated STAT5 phosphorylation in Tall-1 human T cell line (JAK3); assay: Cellular JAK3 potency assay: inhibition of IL-2 stimulated pSTAT5 in Tall-1 T cells; format: cell-based; settings: IL-2 stimulated pSTAT5, Tall-1 T cells
How it was run: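 AlphaLISA SureFire Ultra measures STAT5 Tyr694/699 phosphorylation in lysed Tall-1 human T cells. Cells were exposed to compound for 1 h at 37 °C before a 30 min IL-2 challenge (300 ng/ml final). Values are pIC50 means with standard deviation from signal-versus-concentration curves.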

Sequence of Tyk2 (P29597 whole entry): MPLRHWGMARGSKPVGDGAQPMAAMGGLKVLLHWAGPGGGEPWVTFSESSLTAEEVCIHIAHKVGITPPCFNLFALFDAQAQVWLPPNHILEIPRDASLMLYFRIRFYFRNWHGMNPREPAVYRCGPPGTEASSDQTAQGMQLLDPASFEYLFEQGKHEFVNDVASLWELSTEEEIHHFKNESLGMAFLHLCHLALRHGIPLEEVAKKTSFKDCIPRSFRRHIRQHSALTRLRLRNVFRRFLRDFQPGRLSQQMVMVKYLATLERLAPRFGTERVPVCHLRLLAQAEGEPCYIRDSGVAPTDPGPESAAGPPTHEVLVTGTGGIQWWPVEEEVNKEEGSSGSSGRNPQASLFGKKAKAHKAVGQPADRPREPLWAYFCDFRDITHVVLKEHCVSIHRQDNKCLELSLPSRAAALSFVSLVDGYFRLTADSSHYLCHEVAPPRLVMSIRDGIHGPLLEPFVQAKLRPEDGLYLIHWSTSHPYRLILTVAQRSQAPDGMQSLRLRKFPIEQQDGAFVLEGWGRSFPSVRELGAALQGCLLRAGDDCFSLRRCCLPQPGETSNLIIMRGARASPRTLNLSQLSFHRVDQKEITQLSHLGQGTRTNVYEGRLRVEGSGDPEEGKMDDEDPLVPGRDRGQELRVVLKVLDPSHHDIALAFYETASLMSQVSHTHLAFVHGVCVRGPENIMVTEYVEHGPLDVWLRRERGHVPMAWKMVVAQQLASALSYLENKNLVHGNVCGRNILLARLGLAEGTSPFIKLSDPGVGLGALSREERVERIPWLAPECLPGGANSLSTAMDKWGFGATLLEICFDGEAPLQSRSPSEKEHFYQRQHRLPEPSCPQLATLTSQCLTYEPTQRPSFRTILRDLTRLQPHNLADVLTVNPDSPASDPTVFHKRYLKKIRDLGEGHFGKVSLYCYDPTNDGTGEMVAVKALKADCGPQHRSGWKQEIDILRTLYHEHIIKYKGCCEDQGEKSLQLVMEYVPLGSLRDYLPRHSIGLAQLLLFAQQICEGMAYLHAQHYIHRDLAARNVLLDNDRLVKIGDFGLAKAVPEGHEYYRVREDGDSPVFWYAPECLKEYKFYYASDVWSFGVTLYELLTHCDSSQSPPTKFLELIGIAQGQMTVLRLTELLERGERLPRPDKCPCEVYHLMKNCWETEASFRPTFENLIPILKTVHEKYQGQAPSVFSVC

Row | Compound | Tyk 2 (pKi) (Tyk2) | JAK 1 (pKi) (JAK1) | JAK 2 (pKi) (JAK2) | Caco Kp (Caco-2 cell monolayers) | JAK 3 (pKi) (JAK3) | JAK3 (pKi)-JAK1 (pKi) (JAK3) | Tall-1 (pIC50) [1]
1 | C=CC(=O)N1CCN(CCn2c(=O)ccc3cnc(Nc4ccc(N5CCN(S(C)(=O)=O)CC5)cc4)nc32)[C@@H](CC)C1 [Example 189] | E (E represents a pKi value of 7 or below (Ki of 100 nM or above)) | E (E represents a pKi value of 7 or below (Ki of 100 nM or above)) | E (E represents a pKi value of 7 or below (Ki of 100 nM or above)) | B (B represents a value between 5×10^−6 and 10×10^−6 cm/sec) | A (A represents a pKi value≥10 (Ki≤0.1 nM)) | A (A represents a value of 3 or above) | B (B represents a pC50 value between 6.7 (included) and 7.5 (IC50 between 200 nM and 32 nM))
2 | C=CC(=O)N1CCN(CCn2c(=O)ccc3cnc(Nc4ccc(N5CCN(C(=O)OC)CC5)cc4)nc32)[C@@H](CC)C1 [Example 190] | E (E represents a pKi value of 7 or below (Ki of 100 nM or above)) | E (E represents a pKi value of 7 or below (Ki of 100 nM or above)) | E (E represents a pKi value of 7 or below (Ki of 100 nM or above)) | C (C represents a value between 10×10^−6 and 30×10^−6 cm/sec) | A (A represents a pKi value≥10 (Ki≤0.1 nM)) | A (A represents a value of 3 or above) | B (B represents a pC50 value between 6.7 (included) and 7.5 (IC50 between 200 nM and 32 nM))
3 | C=CC(=O)N1CCN(CCn2c(=O)ccc3cnc(Nc4ccc(N5CCN(S(=O)(=O)CCOC)CC5)cc4)nc32)[C@@H](CC)C1 [Example 191] | E (E represents a pKi value of 7 or below (Ki of 100 nM or above)) | E (E represents a pKi value of 7 or below (Ki of 100 nM or above)) | E (E represents a pKi value of 7 or below (Ki of 100 nM or above)) | B (B represents a value between 5×10^−6 and 10×10^−6 cm/sec) | A (A represents a pKi value≥10 (Ki≤0.1 nM)) | A (A represents a value of 3 or above) | B (B represents a pC50 value between 6.7 (included) and 7.5 (IC50 between 200 nM and 32 nM))
4 | C=CC(=O)N1CCN(CCn2c(=O)ccc3cnc(Nc4ccc(N5CCN(C(=O)CCSC)CC5)cc4)nc32)[C@@H](CC)C1 [Example 192] | E (E represents a pKi value of 7 or below (Ki of 100 nM or above)) | E (E represents a pKi value of 7 or below (Ki of 100 nM or above)) | E (E represents a pKi value of 7 or below (Ki of 100 nM or above)) | C (C represents a value between 10×10^−6 and 30×10^−6 cm/sec) | B (B represents pKi value between 9 and 10 (Ki between 1 nM and 0.1 nM)) | A (A represents a value of 3 or above) | B (B represents a pC50 value between 6.7 (included) and 7.5 (IC50 between 200 nM and 32 nM))
5 | C=CC(=O)N1CCN(CCn2c(=O)ccc3cnc(Nc4ccc(N5CCN(C)CC5)cc4)nc32)[C@@H](CO)C1 [Example 193] | E (E represents a pKi value of 7 or below (Ki of 100 nM or above)) | E (E represents a pKi value of 7 or below (Ki of 100 nM or above)) | E (E represents a pKi value of 7 or below (Ki of 100 nM or above)) | A (A represents a value below 5×10^−6 cm/sec) | B (B represents pKi value between 9 and 10 (Ki between 1 nM and 0.1 nM)) | A (A represents a value of 3 or above) | B (B represents a pC50 value between 6.7 (included) and 7.5 (IC50 between 200 nM and 32 nM))
6 | C=CC(=O)N1CCN(CCn2c(=O)ccc3cnc(Nc4cnn(Cc5ccccc5)c4)nc32)[C@@H](CC)C1 [Example 194] | E (E represents a pKi value of 7 or below (Ki of 100 nM or above)) | E (E represents a pKi value of 7 or below (Ki of 100 nM or above)) | E (E represents a pKi value of 7 or below (Ki of 100 nM or above)) | C (C represents a value between 10×10^−6 and 30×10^−6 cm/sec) | B (B represents pKi value between 9 and 10 (Ki between 1 nM and 0.1 nM)) | A (A represents a value of 3 or above) | B (B represents a pC50 value between 6.7 (included) and 7.5 (IC50 between 200 nM and 32 nM))
7 | C=CC(=O)N1CCN(CCn2c(=O)ccc3cnc(Nc4cnn(C5CCN(C)CC5)c4)nc32)[C@@H](CC)C1 [Example 196] | E (E represents a pKi value of 7 or below (Ki of 100 nM or above)) | E (E represents a pKi value of 7 or below (Ki of 100 nM or above)) | E (E represents a pKi value of 7 or below (Ki of 100 nM or above)) | A (A represents a value below 5×10^−6 cm/sec) | B (B represents pKi value between 9 and 10 (Ki between 1 nM and 0.1 nM)) | A (A represents a value of 3 or above) | B (B represents a pC50 value between 6.7 (included) and 7.5 (IC50 between 200 nM and 32 nM))
8 | C=CC(=O)N1CCN(CCn2c(=O)ccc3cnc(Nc4cnn(C5CCOCC5)c4)nc32)[C@@H](CC)C1 [Example 197] | E (E represents a pKi value of 7 or below (Ki of 100 nM or above)) | E (E represents a pKi value of 7 or below (Ki of 100 nM or above)) | E (E represents a pKi value of 7 or below (Ki of 100 nM or above)) | A (A represents a value below 5×10^−6 cm/sec) | B (B represents pKi value between 9 and 10 (Ki between 1 nM and 0.1 nM)) | A (A represents a value of 3 or above) | B (B represents a pC50 value between 6.7 (included) and 7.5 (IC50 between 200 nM and 32 nM))
9 | C=CC(=O)N1CCN(CCn2c(=O)ccc3cnc(Nc4ccc(N5CCN(C(=O)C[S+]([O-])CC)CC5)cc4)nc32)[C@@H](CC)C1 (stereo partly shown) [Example 198] | E (E represents a pKi value of 7 or below (Ki of 100 nM or above)) | E (E represents a pKi value of 7 or below (Ki of 100 nM or above)) | E (E represents a pKi value of 7 or below (Ki of 100 nM or above)) | A (A represents a value below 5×10^−6 cm/sec) | B (B represents pKi value between 9 and 10 (Ki between 1 nM and 0.1 nM)) | A (A represents a value of 3 or above) | C (C represents a pIC50 value between 6 and 6.7 (IC50 between 1 μM and 200 nM))
10 | C=CC(=O)N1CCN(C(C)Cn2c(=O)ccc3cnc(Nc4ccc(N5CCN(C(C)=O)CC5)cc4)nc32)CC1 (stereo not shown) [Example 201] | E (E represents a pKi value of 7 or below (Ki of 100 nM or above)) | E (E represents a pKi value of 7 or below (Ki of 100 nM or above)) | E (E represents a pKi value of 7 or below (Ki of 100 nM or above)) | A (A represents a value below 5×10^−6 cm/sec) | B (B represents pKi value between 9 and 10 (Ki between 1 nM and 0.1 nM)) | A (A represents a value of 3 or above) | B (B represents a pC50 value between 6.7 (included) and 7.5 (IC50 between 200 nM and 32 nM))
